The test system of this experiment is A549 NSCLC cells. As to the kind of experiment: Cellular cytotoxicity assay (Alamar Blue), A549. The format is cell-based. As to conditions: Homo sapiens, 72 h, upper end given as ≧100, read-out: IC50 (μM), cytotoxicity towards A549 NSCLC cells. The protocol: The anti-proliferative activity of the histone deacetylase inhibitory compounds as described herein, is evaluated using the following cell lines: HeLa and HeLa-KB (cervical carcinoma), H460 (non small cell lung cancer), A549 (non-small cell lung cancer), MCF7 (breast carcinoma), MCF10A (normal, non tumorigenic breast epithelial), MDA-MB468 (breast carcinoma), MDA-MB435 (breast carcinoma), MDA-MB231 (breast carcinoma), SKBR-3 (breast carcinoma), SKOV-3 (ovarial carcinoma), A-2780 (ovarial carcinoma), RKO (colon carcinoma), HCT-15 (colon carcinoma), HCT-116 (colon carcinoma), PC3 (prostate carcinoma), BPH1 (benign prostate hyperplasia), AsPC1 (pancreatic carcinoma), Ca127 (tongue carcinoma), A-431 (vulva carcinoma), Hec1A (endometrial carcinoma), Saos-2 (osteosarcoma), U87MG (glioblastoma), WM266-4 (melanoma), K562 (chronic myeloid leukemia), EOL1 (acute hypereosinophilic myeloid leukemia), CCRF-CEM and CCRF-CEM VCR1000 (acute lymphoblastic leukemia sensitive and resistant towards Vincristine). For quantification of cellular proliferation/living cells the Alamar Blue (Resazurin) cell viability assay is applied (O'Brien et al. Eur J Biochem 267, 5421-5426, 2000). In this assay Resazurin is reduced to the fluorescent resorufine by cellular dehydrogenase activity, correlating with viable, proliferating cells. The examples are dissolved as 20 mM solutions in dimethylsulfoxide (DMSO) and subsequently diluted in semi-logarithmic steps. Cell lines are seeded at respective density into 96 well flat bottom plates in a volume of 200 μl per well. 24 h after seeding 1 μl each of the compound dilutions are added into each well of the 96 well plate. Each compound dilution is tested as quadruplicates. Wells containing untreated control cells are filled with 200 μl DMEM medium containing 0.5% v:v DMSO. The cells are then incubated with the compounds for 72 h at 37° C. in a humidified atmosphere containing 5% carbon dioxide. To determine the viability of the cells, 20 μl of a Resazurin solution (Sigma; 90 mg/l) are added. After 4 h incubation at 37° C. the fluorescence is measured at an extinction of λ=544 nm and an emission of λ=590 nm. For the calculation of the cell viability the emission value from untreated cells is set as 100% viability and the emission rates of treated cells are set in relation to the values of untreated cells. Viabilities are expressed as % values. The corresponding IC50 values of the compounds for cytotoxic activity are determined from the concentration-effect curves by means of non-linear regression.
(In general: Alamar Blue is a resazurin reagent that responds to reducing activity.)

Each structure is given as a SMILES string.

In the case of `Nc1ccccc1NC(=O)c1nc2c(s1)CN(C(=O)C(=O)NCc1ccccc1)CC2` [Example 85, N-(2-aminophenyl)-5-[(benzylamino)(oxo)acetyl]-4,5,6,7-tetrahydro[1,3]thiazolo[5,4-c]pyridine-2-carboxamide], the half-inhibitory concentration (IC50) is at least 0.2 µM.

With `Nc1ccccc1NC(=O)c1nc2c(s1)CN(S(=O)(=O)c1ccc(C(F)(F)F)cc1)CC2` [Example 161, N-(2-aminophenyl)-5-{[4-(trifluoromethyl)phenyl}sulfonyl]-4,5,6,7-tetrahydro[1,3]thiazolo[5,4-c]pyridine-2-carboxamide], the IC50 was at least 0.2 µM.

On to `COc1ccc(NC(=O)N2CCc3nc(C(=O)Nc4cc(C(C)C)ccc4N)sc3C2)cc1` [Example 45, N^2-(2-amino-5-isopropylphenyl)-N^5-(4-methoxyphenyl)-6,7-dihydro[1,3]thiazolo[5,4-c]pyridine-2,5(4H)-dicarboxamide], for which the concentration for half-maximal inhibition (IC50) is at least 0.2 µM.

As for `COc1ccc(NC(=O)C(=O)N2CCc3nc(C(=O)Nc4ccccc4N)sc3C2)cc1OC` [Example 66, N-(2-aminophenyl)-5-{[(3,4-dimethoxyphenyl)amino](oxo)acetyl}-4,5,6,7-tetrahydro[1,3]thiazolo[5,4-c]pyridine-2-carboxamide], the IC50 is at least 0.2 µM.

On to `Cc1ccccc1NC(=NC#N)N1CCc2nc(C(=O)Nc3ccccc3N)sc2C1` [Example 119, N-(2-aminophenyl)-5-{(cyanoimino)[(2-methylphenyl)amino]methyl}-4,5,6,7-tetrahydro[1,3]thiazolo[5,4-c]pyridine-2-carboxamide], for which the IC50 was at least 0.2 µM.

As to `Cc1ccc(NC(=O)C(=O)N2CCc3nc(C(=O)Nc4ccccc4N)sc3C2)cc1` [Example 75, N-(2-aminophenyl)-5-{[(4-methylphenyl)amino](oxo)acetyl}-4,5,6,7-tetrahydro[1,3]thiazolo[5,4-c]pyridine-2-carboxamide], the IC50 was at least 0.2 µM.

For the molecule `Nc1ccccc1NC(=O)c1nc2c(s1)CN(C(=O)NC1CCC(c3ccncc3)CC1)CC2` (centres unmarked) [Example 44, N^2-(2-aminophenyl)-N^5-(4-pyridin-4-ylcyclohexyl)-6,7-dihydro[1,3]thiazolo[5,4-c]pyridine-2,5(4H)-dicarboxamide], the IC50 was at least 0.2 µM.

As to `COc1ccc(NC(=O)C(=O)N2CCc3nc(C(=O)Nc4ccccc4N)sc3C2)cc1` [Example 65, N-(2-aminophenyl)-5-{[(4-methoxyphenyl)amino](oxo)acetyl}-4,5,6,7-tetrahydro[1,3]thiazolo[5,4-c]pyridine-2-carboxamide], the IC50 was at least 0.2 µM.

In the case of `CN(C)c1ccc(NC(=C[N+](=O)[O-])N2CCc3nc(C(=O)Nc4ccccc4N)sc3C2)cc1` [Example 140, N-(2-aminophenyl)-5-[1-{[4-(dimethylamino)phenyl]amino}-2-nitrovinyl]-4,5,6,7-tetrahydro[1,3]thiazolo[5,4-c]pyridine-2-carboxamide], the IC50 was at least 0.2 µM.

On to `Nc1ccccc1NC(=O)c1nc2c(s1)CN(C(=O)NC1CCC(c3cccnc3)CC1)CC2` (centres unmarked) [Example 41, N^2-(2-aminophenyl)-N^5-(4-pyridin-3-ylcyclohexyl)-6,7-dihydro[1,3]thiazolo[5,4-c]pyridine-2,5(4H)-dicarboxamide], for which the IC50 is at least 0.2 µM.

Consider `CC(C)c1ccc(NC(=C[N+](=O)[O-])N2CCc3nc(C(=O)Nc4ccccc4N)sc3C2)cc1` [Example 139, N-(2-aminophenyl)-5-{1-[(4-isopropylphenyl)amino]-2-nitrovinyl}-4,5,6,7-tetrahydro[1,3]thiazolo[5,4-c]pyridine-2-carboxamide], for which the IC50 was at least 0.2 µM.

For `COc1cccc(OCC(=O)N2CCc3nc(C(=O)Nc4ccccc4N)sc3C2)c1` [Example 179, N-(2-aminophenyl)-5-[(3-methoxyphenoxy)acetyl]-4,5,6,7-tetrahydro[1,3]-thiazolo[5,4-c]pyridine-2-carboxamide], the IC50 was at least 0.2 µM.

For `Nc1ccccc1NC(=O)c1nc2c(s1)CN(C(=O)COc1ccccc1)CC2` [Example 172, N-(2-aminophenyl)-5-(phenoxyacetyl)-4,5,6,7-tetrahydro[1,3]thiazolo[5,4-c]pyridine-2-carboxamide], the half-inhibitory concentration (IC50) is at least 0.2 µM.

On to `Nc1ccccc1NC(=O)c1nc2c(s1)CN(C(=O)C(=O)NC1CCC(c3ccncc3)CC1)CC2` (centres unmarked) [Example 67, N-(2-aminophenyl)-5-{oxo[(4-pyridin-4-ylcyclohexyl)amino]acetyl}-4,5,6,7-tetrahydro[1,3]thiazolo[5,4-c]pyridine-2-carboxamide], for which the IC50 is at least 0.2 µM.

As to `Nc1ccccc1NC(=O)c1nc2c(s1)CN(S(=O)(=O)c1cccc(OC(F)(F)F)c1)CC2` [Example 167, N-(2-aminophenyl)-5-{[3-(trifluoromethoxy)phenyl]sulfonyl}-4,5,6,7-tetrahydro[1,3]thiazolo[5,4-c]pyridine-2-carboxamide], the IC50 was at least 0.2 µM.

As for `Nc1ccccc1NC(=O)c1nc2c(s1)CN(C(=O)Nc1ccccc1OC(F)(F)F)CC2` [Example 8, N^2-(2-aminophenyl)-N5-[2-(trifluoromethoxy)phenyl]-6,7-dihydro[1,3]thiazolo[5,4-c]pyridine-2,5(4H)-dicarboxamide], the IC50 is at least 0.2 µM.

Turning to `Nc1ccccc1NC(=O)c1nc2c(s1)CN(C(=O)Nc1ccc(N3CCOCC3)nc1)CC2` [Example 34, N^2-(2-aminophenyl)-N^5-(6-morpholin-4-ylpyridin-3-yl)-6,7-dihydro[1,3]thiazolo[5,4-c]pyridine-2,5(4H)-dicarboxamide], the IC50 was at least 0.2 µM.

With `CCCCNC(=O)N1CCc2nc(C(=O)Nc3ccccc3N)sc2C1` [Example 40, N^2-(2-aminophenyl)-N^5-butyl-6,7-dihydro[1,3]thiazolo[5,4-c]pyridine-2,5(4H)-dicarboxamide], the IC50 was at least 0.2 µM.

Consider `COc1ccc(NC(=S)N2CCc3nc(C(=O)Nc4cc(OC)ccc4N)sc3C2)cc1` [Example 106, N-(2-amino-5-methoxyphenyl)-5-{[(4-methoxyphenyl)amino]carbonothioyl}-4,5,6,7-tetrahydro[1,3]thiazolo[5,4-c]pyridine-2-carboxamide], for which the IC50 is at least 0.2 µM.

On to `COC(=O)c1ccc(C(=O)N2CCc3nc(C(=O)Nc4ccccc4N)sc3C2)cc1` [Example 90, Methyl 4-({2-[(2-aminophenyl)carbamoyl]-6,7-dihydro[1,3]thiazolo[5,4-c]pyridin-5(4H)-yl}carbonyl)benzoate], for which the IC50 was at least 0.2 µM.

`CC(C)c1ccc(N)c(NC(=O)c2nc3c(s2)CN(C(=O)Nc2ccc(F)cc2)CC3)c1` [Example 52, N^2-(2-amino-5-isopropylphenyl)-N^5-(4-fluorophenyl)-6,7-dihydro[1,3]thiazolo[5,4-c]pyridine-2,5(4H)-dicarboxamide]: the IC50 was at least 0.2 µM.

Turning to `COc1ccc(N=C(C)N2CCc3nc(C(=O)Nc4ccccc4N)sc3C2)cc1` [Example 128, N-(2-aminophenyl)-5-[N-(4-methoxyphenyl)ethanimidoyl]-4,5,6,7-tetrahydro[1,3]thiazolo[5,4-c]pyridine-2-carboxamide], the IC50 is at least 0.2 µM.

As to `Nc1ccccc1NC(=O)c1nc2c(s1)CN(C(=O)Nc1ccc(OC(F)F)cc1)CC2` [Example 11, N^2-(2-aminophenyl)-N5-[4-(difluoromethoxy)phenyl]-6,7-dihydro[1,3]thiazolo[5,4-c]pyridine-2,5(4H)-dicarboxamide], the IC50 is at least 0.2 µM.

Take `CC(C)c1ccc(NC(=C[N+](=O)[O-])N2CCc3nc(C(=O)Nc4cc(C(C)C)ccc4N)sc3C2)cc1` [Example 148, N-(2-amino-5-isopropylphenyl)-5-{1-[(4-isopropylphenyl)amino]-2-nitrovinyl}-4,5,6,7-tetrahydro[1,3]thiazolo[5,4-c]pyridine-2-carboxamide]: the IC50 is at least 0.2 µM.

As to `COc1ccc(NC(=O)C(=O)N2CCc3nc(C(=O)Nc4ccccc4N)sc3C2)cn1` [Example 70, N-(2-aminophenyl)-5-{[(6-methoxypyridin-3-yl)amino](oxo)acetyl}-4,5,6,7-tetrahydro[1,3]thiazolo[5,4-c]pyridine-2-carboxamide], the IC50 is at least 0.2 µM.

Turning to `COc1ccc(NC(=C[N+](=O)[O-])N2CCc3nc(C(=O)Nc4cc(OC)ccc4N)sc3C2)cc1` [Example 142, N-(2-amino-5-methoxyphenyl)-5-{1-[(4-methoxyphenyl)amino]-2-nitrovinyl}-4,5,6,7-tetrahydro[1,3]thiazolo[5,4-c]pyridine-2-carboxamide], the IC50 is at least 0.2 µM.

The IC50 is the midpoint of a concentration-inhibition curve.

These data come from US8440830B2, “Tetrahydro-fused pyridines as histone deacetylase inhibitors” (4SC AG, priority 2007, dated 2013).
